Broadly, the melting point is the temperature, or range, at which the solid turns liquid.

On to `CC1(C)OC(=S)Nc2ccc(Br)cc21` [Example 10, 6-Bromo-4,4-dimethyl-1,4-dihydro-benzo[d][1,3]oxazin-2-thione], for which the melting point fell in the range of 221 to 222.5 °C. Turning to `CC1OC(=S)Nc2ccc(-c3cccc(F)c3)cc21` (stereo not shown) [Example 15, 6-(3-fluorophenyl)-4-methyl-1,4-dihydro-2H-3,1-benzoxazine-2-thione], the melting point was 173 to 174 °C. The same measure for `CC(C)(C)OC(=O)n1c(C#N)ccc1-c1ccc2c(c1)C(C)(C)OC(=S)N2` [Example 17, tert-Butyl 2-cyano-5-(4,4-dimethyl-2-thioxo-1,4-dihydro-2H-3,1-benzoxazin-6-yl)-1H-pyrrole-1-carboxylate]: 165 to 167 °C; for `CC1(C)OC(=S)Nc2ccc(-c3ccc(C#N)[nH]3)cc21` [Example 18, 5(4,4-Dimethyl-2-thioxo-1,4-dihydro-2H-3,1-benzoxazin-6-yl)-1H-pyrrole-2-carbonitrile]: 261 to 262 °C; for `CC1(C)OC(=S)Nc2ccc(-c3cccc(CC#N)n3)cc21` [Example 19, [6-(4,4-dimethyl-2-thioxo-1,4-dihydro-2H-3,1-benzoxazin-6-yl)pyridin-2-yl]acetonitrile]: 215 to 217 °C. As for `CC1(C)OC(=S)Nc2ccc(-c3cc(C#N)cs3)cc21` [Example 22, 5-(4,4-Dimethyl-2-thioxo-1,4-dihydro-2H-benzo[d][1,3]oxazin-6-yl)thiophene-3-carbonitrile], the figure is 258 to 259 °C. The same measure for `N#Cc1cc(-c2ccc3c(c2)C2(CCCCC2)OC(=S)N3)cs1` [Example 23, 4-(1,2-Dihydro-2-thioxospiro[4H-3,1-benzoxazin-4,1-cyclohexan]-6-yl)-2-thiophenecarbonitrile]: 225 to 227 °C. Take `CCn1c(C#N)ccc1-c1ccc2c(c1)C(C)(C)OC(=S)N2` [Example 23, 5-(4,4-dimethyl-2-thioxo-1,4-dihydro-2H-3,1-benzoxazin-6-yl)-1-ethyl-1H-pyrrole-2-carbonitrile]: the melting point fell in the range of 212 to 213 °C.

Compound `CC1(C)OC(=S)Nc2ccc(-c3cncc(Br)c3)cc21` [Example 26, 6-(5Bromopyridin-3-yl)-4,4-dimethyl-1,4-dihydro-2H-3,1-benzoxazine-2-thione] displayed a melting point of 252 to 253 °C. The same measure for `Cc1cc(Br)cc(-c2ccc3c(c2)C(C)(C)OC(=S)N3)c1` [Example 28, 6-(3-Bromo-5-methylphenyl)-4,4-dimethyl-1,4-dihydro-2H-3,1-benzoxazine-2-thione]: 183 to 184 °C; for `CC1(C)OC(=S)Nc2ccc(-c3cc(Br)cc(OC(F)(F)F)c3)cc21` [Example 29, 6-(3-Bromo-5trifluoromethoxyphenyl)-4,4-dimethyl-1,4-dihydro-2H-3,1-benzoxazine-2-thione]: 192 to 193 °C. The same measure for `N#Cc1cc(F)cc(-c2ccc3c(c2)C2(CCCCC2)OC(=S)N3)c1` [Example 30, 3-(1,2-Dihydro-2-thioxospiro[4H-3,1-benzoxazine-4,1-cyclohexan]-6-yl)-5-fluorobenzonitrile]: 235 to 237 °C; for `Cc1cc(C#N)cc(-c2ccc3c(c2)C(C)(C)OC(=S)N3)c1` [Example 31, 3-(4,4-Dimethyl-2-thioxo-1,4-dihydro-2H-3,1-benzoxazin-6-yl)-5-methylbenzonitrile]: 230 to 231 °C; for `CC1(C)OC(=S)Nc2ccc(-c3cc(Cl)cc(Cl)c3)cc21` [Example 32, 6-(3,5-Dichlorophenyl)-4,4-dimethyl-1,4-dihydro-2H-3,1-benzoxazine-2-thione]: 206 to 208 °C. The same measure for `CC1(C)OC(=S)Nc2ccc(-c3ccc(C#N)o3)cc21` [Example 34, 5-(4,4-Dimethyl-2-thioxo-1,4-dihydro-2H-3,1-benzoxazin-6-yl)-2-furonitrile]: 200 °C (dec.); for `CCC1(CC)OC(=S)Nc2ccc(-c3cccc([N+](=O)[O-])c3)cc21` [Example 35, 4,4Diethyl-6-(3-nitrophenyl)-1,4-dihydro-2H-3,1-benzoxazine2-thione]: 180 to 181 °C; for `CC1(c2ccccc2)OC(=S)Nc2ccc(-c3cccc(Cl)c3)cc21` (stereo not shown) [Example 36, 6-(3-Chlorophenyl)-4-methyl-4-phenyl-1,4-dihydro-2H-3,1-benzoxazine-2-thione]: 202 to 203 °C. As for `C=CCC1(C)OC(=S)Nc2ccc(-c3cccc(Cl)c3)cc21` (stereo not shown) [Example 37, 4-Allyl-6-(3-chlorophenyl)-4-methyl-1,4-dihydro-2H-3,1-benzoxazine2-thione], the melting point fell in the range of 150 to 151 °C. The same measure for `CC1(C)OC(=S)Nc2ccc(-c3cc(Cl)cc(C#N)c3)cc21` [Example 38, 3-Chloro-5-(4,4-dimethyl-2-thioxo-1,4-dihydro-2H-3,1-benzoxazin-6-yl)benzonitrile]: 249 to 251 °C. Compound `CC1(C)OC(=S)Nc2ccc(-c3cc(F)cc(F)c3)cc21` [Example 39, 6-(3,5-Difluorophenyl)-4,4-dimethyl-1,4-dihydro-2H-3,1-benzoxazine-2-thione] showed a melting point of 224 to 225 °C. The same measure for `COc1cc(F)cc(-c2ccc3c(c2)C(C)(C)OC(=S)N3)c1` [Example 40, 6-(3-Fluoro-5methoxyphenyl)-4,4-dimethyl-1,4-dihydro-2H-3,1-benzoxazine-2-thione]: 170 to 171 °C; for `COc1cc(C#N)cc(-c2ccc3c(c2)C(C)(C)OC(=S)N3)c1` [Example 41, 3-(4,4-Dimethyl-2-thioxo-1,4-dihydro2H-3,1-benzoxazin-6-yl)-5-methoxybenzonitrile]: 201 to 202 °C; for `CC1(C)OC(=S)Nc2ccc(-c3cccc(F)c3)cc21` [Example 42, 6-(3-Fluorophenyl)-4,4-dimethyl-1,4-dihydro-2H-3,1-benzoxazine-2-thione]: 194 to 195 °C.

Consider `CC1(C)OC(=S)Nc2ccc(-c3ccccc3F)cc21` [Example 44, 6-(2-Fluorophenyl)-4,4-dimethyl-1,4-dihydro-2H-3,1-benzoxazine-2-thione], for which the melting point lay within 171 to 173 °C. `CC1(C)OC(=S)Nc2ccc(-c3ccc(F)c(F)c3)cc21` [Example 45, 6-(3,4-Difluorophenyl)-4,4-dimethyl-1,4-dihydro-2H-3,1-benzoxazine-2-thione] had a melting point of 209 to 211 °C.

`CC1(C)OC(=S)Nc2ccc(-c3ccc(F)cc3)cc21` [Example 46, 6(4-Fluorophenyl)-4,4-dimethyl-1,4-dihydro-2H-3,1-benzoxazine-2-thione] had a melting point of 221 to 223 °C. The same measure for `CC1(C)OC(=S)Nc2ccc(-c3cccc(F)c3F)cc21` [Example 48, 6-(2,3-Difluorophenyl)-4,4-dimethyl-1,4-dihydro-2H-3,1-benzoxazine-2-thione]: 197 to 198 °C; for `CC1(C)OC(=S)Nc2c(Br)cc(-c3cc(F)cc(C#N)c3)cc21` [Example 49, 3-(8-Bromo-4,4-dimethyl-2-thioxo-1,4-dihydro-2H-3,1-benzoxazin-6-yl)-5-fluorobenzonitrile]: 216 to 217 °C; for `CC1(C)OC(=S)Nc2ccc(-c3cccc([N+](=O)[O-])c3)cc21` [Example 50, 4,4-Dimethyl-6-(3-nitrophenyl)-1,4-dihydro-2H-3,1-benzoxazine-2-thione]: 224 to 226 °C. For the compound `CCC1(CC)OC(=S)Nc2ccc(-c3cccc(Cl)c3)cc21` [Example 51, 6-(3-Chlorophenyl)-4,4-diethyl-1,4-dihydro-2H-3,1-benzoxazine-2-thione], the melting point was 148 to 150 °C. As for `COc1cccc(-c2ccc3c(c2)C(C)(C)OC(=S)N3)c1` [Example 52, 6-(3-Methoxyphenyl)-4,4-dimethyl-1,4-dihydro-2H-3,1-benzoxazine-2-thione], the figure is 142 to 143 °C; as for `CC1(C)OC(=S)Nc2ccc(-c3ccccc3Cl)cc21` [Example 53, 6-(2-Chlorophenyl)-4,4-dimethyl-1,4-dihydro-2H-3,1-benzoxazine-2-thione], 171 to 172 °C; as for `CC1(C)OC(=S)Nc2ccc(-c3cc(F)cc(Br)c3)cc21` [Example 55, 6-(3-Bromo-5-fluorophenyl)-4,4-dimethyl-1,4-dihydro-2H-3,1-benzoxazine-2-thione], 221 to 222 °C. The same measure for `CC1(C)OC(=S)Nc2ccc(-c3ccc(C#N)s3)cc21` [Example 56, 5-(4,4-Dimethyl-2-thioxo-1,4-dihydro-2H-3,1-benzoxazin-6-yl)thiophene-2-carbonitrile]: 242 to 244 °C; for `N#Cc1cccc(-c2ccc3c(c2)C2(CCCCC2)OC(=S)N3)c1` [Example 58, 3(1,2-Dihydro-2-thioxospiro[4H-3,1-benzoxazine4,1-cyclohexan]-6-yl)benzonitrile]: 222 to 224 °C; for `Cc1cc(C#N)sc1-c1ccc2c(c1)C1(CCCCC1)OC(=S)N2` [Example 59, 5-(1,2-Dihydro-2-thioxospiro [4H-3,1-benzoxazine-4,1-cyclohexan]-6-yl)-4-methyl-2-thiophenecarbonitrile]: 199 to 201 °C. As for `N#Cc1ccc(-c2ccc3c(c2)C2(CCCCC2)OC(=S)N3)s1` [Example 60, 5-(1,2-Dihydro-2-thioxospiro[4H-3,1-benzoxazine-4,1-cyclohexan]-6yl)-2-thiophenecarbonitrile], the figure is 232 to 233 °C. Turning to `CC1(C)OC(=S)Nc2ccc(-c3ccc(F)c(Cl)c3)cc21` [Example 61, 6-(3-Chloro-4-fluorophenyl)-4,4-dimethyl-1,4-dihydro-2H-3,1-benzoxazine-2-thione], the melting point lay in the range of 196 to 197 °C. The same measure for `CCCc1cc(C#N)sc1-c1ccc2c(c1)C(C)(C)OC(=S)N2` [Example 62, 5-(4,4-Dimethyl-2-thioxo-1,4-dihydro-2H-3,1-benzoxazin6-yl)-4-propylthiophene2-carbonitrile]: 174 to 175 °C. The same measure for `CC1(C)OC(=S)Nc2ccc(-c3coc(C#N)c3)cc21` [Example 63, 4-(4,4-Dimethyl-2-thioxo-1,4-dihydro-2H-3,1-benzoxazin-6-yl)-2-furonitrile]: 214 to 216 °C.

Values taken from patent US6436929B1 (Wyeth, priority 1999, dated 2002).
